Results published in BindingDB's records for patent US12565504 (Biogen Ma, 2026).

These molecules were tested against T1, Protein O-GlcNAcase (Homo sapiens, UniProt O60502) (assay: OGA Enzyme Inhibition Biochemical Assay).
T1 sequence (O60502 whole entry): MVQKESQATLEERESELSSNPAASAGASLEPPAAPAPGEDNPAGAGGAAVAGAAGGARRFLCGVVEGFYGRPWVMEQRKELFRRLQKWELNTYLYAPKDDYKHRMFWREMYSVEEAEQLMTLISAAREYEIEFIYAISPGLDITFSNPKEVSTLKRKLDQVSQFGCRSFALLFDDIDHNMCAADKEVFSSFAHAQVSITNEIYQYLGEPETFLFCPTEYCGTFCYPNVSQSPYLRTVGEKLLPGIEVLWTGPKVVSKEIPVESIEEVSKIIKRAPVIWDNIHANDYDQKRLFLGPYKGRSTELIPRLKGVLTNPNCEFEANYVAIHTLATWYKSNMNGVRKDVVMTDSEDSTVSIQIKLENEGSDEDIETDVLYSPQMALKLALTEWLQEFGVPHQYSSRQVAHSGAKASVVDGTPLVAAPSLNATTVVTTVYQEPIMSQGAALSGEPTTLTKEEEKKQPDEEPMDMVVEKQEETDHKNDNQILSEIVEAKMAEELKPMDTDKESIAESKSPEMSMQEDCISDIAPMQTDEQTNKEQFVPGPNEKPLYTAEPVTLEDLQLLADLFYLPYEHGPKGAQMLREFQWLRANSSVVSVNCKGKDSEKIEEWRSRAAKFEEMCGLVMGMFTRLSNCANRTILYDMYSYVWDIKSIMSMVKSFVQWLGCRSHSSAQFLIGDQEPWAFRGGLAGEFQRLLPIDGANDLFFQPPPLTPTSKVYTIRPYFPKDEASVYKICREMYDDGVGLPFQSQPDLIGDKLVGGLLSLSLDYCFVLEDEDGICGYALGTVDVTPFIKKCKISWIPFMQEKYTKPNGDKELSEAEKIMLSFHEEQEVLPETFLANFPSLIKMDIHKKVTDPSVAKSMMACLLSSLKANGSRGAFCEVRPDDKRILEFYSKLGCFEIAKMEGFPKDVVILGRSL
Protocol: Recombinant full length human OGA enzyme was purchased from Origene. 4-MUGlcNAc substrate was purchased from Sigma. All other reagents were purchased from Sigma or Fisher. Assay buffer consists of the McIlvaine buffer system, pH 6.4 (0.2M Na2HPO4 mixed with 0.1M citric acid) and 0.01% BSA. […] Reactions were incubated for 90 minutes at room temperature and quenched with 40 μl of 3M glycine, pH 10 and read on a Perkin Elmer Envision plate reader (Ex: 355 nm/Em: 460 nm). Compounds were tested with a 10-point dose-response starting from 20 μM with a 4-fold dilution. Data was fit using GraphPad Prism using a 4-parameter fit with variable slope.
In the case of `COc1cc2c(cn1)[C@]1(C[C@H](C)N(Cc3sc(NC(C)=O)nc3F)C1)OC2` (single isomer, unassigned) [US12565504, Example 75-a], the IC50 is reported as 10 nM.
Work on `COc1cc2c(cn1)[C@@]1(C[C@H](C)N(Cc3sc(NC(C)=O)nc3F)C1)OC2` (single isomer, unassigned) [US12565504, Example 75-b] yielded an IC50 of 47 nM.
`COc1nccc2c1COC21C[C@H](C)N(Cc2sc(NC(C)=O)nc2F)C1` (some centres undefined) [US12565504, Example 77] showed an IC50 of 4 nM.
For `CC(=O)Nc1nc(F)c(CN2CC3(C[C@@H]2C)OCc2ncccc23)s1` (some centres undefined) [US12565504, Example 79], the IC50 was 10 nM.
